The source of these data is patent US11306360B2, “Assessment of cellular signaling pathway activity using linear combination(s) of target gene expressions” (KONINKLIJKE PHILIPS N.V., priority 2012, dated 2022).

In one experiment the test system is AR pathway. Conditions: LNCaP stimulated with DHT for 4 hours, compared with 16 hours. From the text:
FIG. 13 AR training results using fuzzy transformed expression data of GSE7868, “all probesets” as mentioned in Table 4 and “black and white” weights. The 1st and 2nd group of samples (from the left) has been used as negative and positive training samples, respectively.
The expression data of these stimulation experiments are publically available in the GSE7868 dataset that has been fuzzy transformed as described herein. […] The 1st and 2nd group of samples from the left has been used as negative and positive training samples, respectively.

Experiment [1] deals with ER pathway. Nature of the experiment: Predicted ER pathway activity in wild type MCF7 cell line (GSE21618). The format is cell-based. How it is done:
(§1) The ER (pseudo-)linear model was trained using continuous expression data of GSE8597, the “most discriminative probesets” (underlined probesets in Table 2) and “log odds” weights (see training results in FIG. 10). Different stimulation regimes were applied, denoted in the different groups of samples, and the expression of mRNA was measured by microarray at 0, 1, 2, 3, 6, 12, 24, 48 hours, denoted by the consecutive samples in the groups.
(§2) The (pseudo-)linear model of the ER pathway, constructed using a node for the transcription factor presence and a layer of probesets (Table 2) associated with the target genes of the ER pathway, analogous to FIG. 2 as described herein, and trained as described herein, was used to calculate the ER pathway activity score.
(§3) With respect to FIG. 20, Tamoxifen is a drug currently used for the treatment of ER+ (estrogen receptor positive) breast cancer. It acts as a partial antagonist of the estrogen receptor inhibiting the uncontrolled cell proliferation which is thought to be induced by ER signaling. […] Many studies have been conducted to investigate this so-called Tamoxifen resistance. The publicly available GSE21618 data set is the result of one of such study and contains microarray data of Tamoxifen resistant and wildtype MCF7 cell lines under different treatment regimes. […]

For experiment [2], the system named is ER pathway. The experiment can be described thus: ER pathway activity score in MCF7 cells stimulated with or deprived of E2 (GSE11352). The format is cell-based. Conditions: MCF7, longer exposure times (12, 24, 48 hours) to ER stimulating agent. From the text:
FIG. 12 ER pathway prediction in stimulation response data of MCF7 cells treated with ER stimulating agent (E2) or control for several treatment intervals (GSE11352, continuous data). The model is trained using continuous expression data of GSE8597, the “most discriminative probesets” (underlined probesets in Table 2) and “log odds” weights (see training results in FIG. 10).
In another example, a publically available data set of MCF7 cell lines stimulated with or deprived of ER stimulating agent (E2) with expression levels measured at 12 hours, 24 hours and 48 hours after starting stimulation or deprivation (GSE11352) was used to calculate the ER activity scores using the trained ER (pseudo-)linear model as described herein. […] With the exception of the starvation of 48 hours, the predicted ER activity scores nicely correlates with the knowledge that prolonged stimulation result in higher ER activity and vice versa. Inversely, this example implies that the ER activity score can be used to monitor efficacy or inefficacy of stimulation or inhibition of ER activity treatments.

Experiment [3] relates to ER pathway. Nature of the experiment: ER activity score validation in MCF7 breast cancer cell line (GSE9253). The format is cell-based. Conditions: MCF7 sample stimulated with E2, 3 hours. An excerpt:
FIG. 17 ER validation results of a stimulation experiment with MCF7 cells (GSE9253, continuous data). The (pseudo-)linear model was trained using continuous expression data of GSE8597, the “most discriminative probesets” (underlined probesets in Table 2) and “log odds” weights (see training results in FIG. 10). It is clear from the MCF7 cells stimulated with E2, ER stimulating agent, that the defined threshold was set too high. The reason for this discrepancy could be a different stimulation regime (i.e. higher E2 concentration, but shorter stimulation time, etc.). Nevertheless, the difference of the calculated ER activity scores of the stimulated and non-stimulated cells is evident.
In FIG. 17 the validation results of the trained ER (pseudo-)linear model is shown for two microarrays measured using a MCF7 breast cancer cell line sample, one stimulated with estradiol (E2) the other one with a negative control (EtOH), originating from the GSE9253 data set. The difference in ER activity score is evident from FIG. 17. […] This is the result of the threshold defining either an active or passive state was set too high for this particular experiment. […]

Experiment [4] relates to ER pathway. Nature of the experiment: Predicted ER pathway activity in Tamoxifen resistant MCF7 cell line (GSE21618). Conditions: Tamoxifen resistant cell line stimulated with E2 and treated with Tamoxifen (TamR.E2_Tam); 1, 2, 3, 6, 12, 24 and 48 h. The format is cell-based. How it is done: as §1, §2, §3

As for `C[C@]12CCC(=O)C[C@@H]1CC[C@@H]1[C@@H]2CC[C@]2(C)[C@@H](O)CC[C@@H]12` [DHT, Dihydrotestosterone], the AR activity result with AR pathway was “demonstrates AR activity, albeit lower activity levels than the cells stimulated for 16 hours”.

`C[C@]12CC[C@@H]3c4ccc(O)cc4CC[C@H]3[C@@H]1CC[C@@H]2O` [E2, 17beta-estradiol]: the ER activity predictions result in the experiment on ER pathway [1] (wild type MCF7 treated with 17beta-estradiol (wt1.E2)) is on record as “increasing ER positive activity predictions”. In addition, the “ER pathway activity score” value in the experiment with ER pathway [2] was “increase for longer exposure times”. The ER activity score result with ER pathway [3] is “slightly negative ER activity score”.

With `CC/C(=C(\c1ccccc1)c1ccc(OCCN(C)C)cc1)c1ccccc1` [Tamoxifen], in the experiment with ER pathway [4], the “predicted ER pathway activity” value was “ineffective”. For the same compound, the “ER pathway activity score in time” value in the experiment on ER pathway [1] (wild type MCF7 stimulated with E2 and treated with Tamoxifen (wt2.E2_Tam)) was “decreasing ER pathway activity score in time”.
